The values below are quoted from earlier work in patent US20220184070A1, “LOW-DOSE TRIPLE COMBINATION FORMULATION” (The George Institute for Global Health, priority 2019, published 2022).

Marks after values point to notes of the source that are not given here.

This series has as its system plasma glucose.

For `N[C@@H](CC(=O)N1CCn2c(nnc2C(F)(F)F)C1)Cc1cc(F)c(F)cc1F` [Sitagliptin, sitagliptin], where the note is “single dose 100 mg monotherapy, published studies”, the “Percentage change in plasma glucose from pre-prandial adjusted for placebo, at 2 h PPG” value was −6.3%. Further, the “Difference in mean 2 h post-prandial glucose (PPG) vs placebo” value (single dose 100 mg, 180 min, FIG. 4) is reported as ~1 mmol/L. Further, the “Maximum difference in plasma glucose between sitagliptin and placebo” value (single dose 100 mg, at 120 min post-dose (90 min post-meal), FIG. 4) is recorded as 1.5 mmol/L. Further, the “Percentage change in plasma glucose from pre-prandial adjusted for placebo, Maximum” value (single dose 100 mg, maximum achieved at 1.5 h post-prandial, published studies) is given as −20.3^a %. Also, the “Time at which maximum PPG and serum insulin were achieved” value (single dose 100 mg, post-dose (0.5 h post-meal), FIG. 4) is reported as ~1 h.
